The values that follow are results of earlier work, collected in patent US9636407B2, “Caspofungin acetate formulations” (priority 2012, dated 2017).

For data set [1] the following is noted: CANCIDAS prescribing information.
For data set [2] the following is noted: background statement.

Regarding “1-[(4R,5S)-5-[(2-aminoethyl)amino]-N^2-(10,12-dimethyl-1-oxotetradecyl)-4-hydroxy-L-ornithine]-5-[(3R)-3-hydroxy-L-ornithine]pneumocandin B0 diacetate (salt) [caspofungin acetate]”, in data set [1], the “pH of a saturated solution in water” value is listed as “about 6.6”. Besides, the oral bioavailability result in data set [2] is “poor”.
